For data set [1], the system named is Plasmodium falciparum. The data set is described as follows: NOVARTIS: Inhibition of Plasmodium falciparum 3D7 (drug-susceptible) proliferation in erythrocyte-based infection assay. Type of data set: functional, organism-based. To be noted: Plasmodium falciparum, 3D7.
Data set [2] relates to Plasmodium falciparum. Put plainly: NOVARTIS: Inhibition of Plasmodium falciparum W2 (drug-resistant) proliferation in erythrocyte-based infection assay. It counts as functional, organism-based. Particulars: Plasmodium falciparum, W2; read-out: EC50.
A short description of data set [3]: NOVARTIS: Cytotoxicity against human hepatocellular carcinoma cell line (Huh7). Type of data set: toxicity, cell-based, Huh-7. To be noted: Huh7 cells (hepatocellular carcinoma cell line).

Some results are limits rather than exact numbers.

As a reminder, the EC50 is the concentration needed to bring the measured effect to its halfway point. In general, CC50 refers to the concentration giving 50% cytotoxicity. Lower therefore signals harm at low concentration. As for `CCCCCC(=O)N1c2ccccc2N=C2CC(c3ccc(OC)c(OC)c3)CC(O)=C2C1c1ccc(C(F)(F)F)cc1` (stereo not drawn), the EC50 is 0.107 µM in the data set on Plasmodium falciparum [1] and 0.047 µM in the data set on Plasmodium falciparum [2]. Also, the half-maximal cytotoxic concentration (CC50) in data set [3] was greater than 100 µM.

For `O=C(c1ccco1)N1CCN(c2ccc([N+](=O)[O-])c(NC3CC3)c2)CC1`, the half-maximal effective concentration (EC50) with Plasmodium falciparum [1] turned out to be 0.1 µM; in the data set on Plasmodium falciparum [2] it was 0.0445 µM. In data set [3], this compound registered a cytotoxic concentration (CC50) greater than 100 µM.

With `CCCCCc1cc(O)c2c3c(c(=O)oc2c1)CN(C)CC3`, the EC50 was 0.0494 µM in the data set on Plasmodium falciparum [1] and 0.0376 µM in the data set with Plasmodium falciparum [2]. The compound further came in with a CC50 in data set [3] greater than 96.8 µM.

Turning to `CCOC(=O)C1=C(C)NC2=C(C(=O)C(C(=O)OC)C(C)C2)C1c1cc(Br)c(OCC)c(OC)c1` (stereo not drawn), the half-maximal effective concentration (EC50) came to 0.255 µM in the data set with Plasmodium falciparum [1] and 0.0396 µM with Plasmodium falciparum [2]. Further, the 50% cytotoxic concentration (CC50) in data set [3] was greater than 100 µM.

Take `COc1ccc(C2(CNCC(O)c3cccc([N+](=O)[O-])c3)CCCC2)cc1OC` (stereo not drawn): the 50% effective concentration (EC50) in the data set on Plasmodium falciparum [1] stood at 0.49 µM; in the data set on Plasmodium falciparum [2], 0.0525 µM. The CC50 in data set [3] is greater than 100 µM.

As for `CCCN(CCC)CC(O)COc1ccccc1C(=O)Nc1ccccc1` (stereo not drawn), the concentration giving a half-maximal response (EC50) in the data set on Plasmodium falciparum [1] was determined as 0.365 µM; in the data set on Plasmodium falciparum [2], 0.0511 µM. In addition, in data set [3], the CC50 was greater than 100 µM.

For the compound `CCCN(C(=O)C(=O)Nc1ccc2nc3n(c(=O)c2c1)CCCCC3)c1ccc(OCC)cc1`, the concentration for a half-maximal effect (EC50) was determined as 0.0899 µM in the data set with Plasmodium falciparum [1] and 0.0501 µM in the data set on Plasmodium falciparum [2]. Besides, in data set [3], the half-maximal cytotoxic concentration (CC50) is greater than 100 µM.

Take `COc1cccc(-c2ccc(O)c(CNC34CC5CC(CC(C5)C3)C4)c2)n1`: the EC50 with Plasmodium falciparum [1] is 0.207 µM; with Plasmodium falciparum [2] it was 0.05 µM. For the same compound, the cytotoxic concentration (CC50) in data set [3] is greater than 100 µM.

In the case of `CCOC(=O)C1=C(C)NC2=C(C(=O)CC(c3ccc(Cl)cc3)C2)C1c1ccc(Cl)cc1` (stereo not drawn), the EC50 was determined as 0.0894 µM with Plasmodium falciparum [1] and 0.0515 µM with Plasmodium falciparum [2]. In data set [3], this compound came in with a half-maximal cytotoxic concentration (CC50) greater than 100 µM.

Turning to `CCSc1nc2sc3c(c2c(=O)n1-c1ccccc1)CCN(Cc1ccccc1)C3`, the results for the concentration for a half-maximal effect (EC50) in the data set with Plasmodium falciparum [1] and in the data set with Plasmodium falciparum [2] were 0.0858 µM and 0.0348 µM, respectively. The compound further registered a CC50 in data set [3] greater than 68.4 µM.

Consider `NCCCC[C@H]1C(=O)Nc2ccc(O)cc2C(=O)N1C(C(=O)NCC(=O)O)c1cccnc1` (stereo partly drawn), for which the 50% effective concentration (EC50) in the data set on Plasmodium falciparum [1] was 0.115 µM; with Plasmodium falciparum [2], less than 0.0063 µM. Moreover, in data set [3], the CC50 is greater than 12.1 µM.

Regarding `CC(CCc1ccccc1)N1CC(c2cccc([N+](=O)[O-])c2)OC1=S` (stereo not drawn), the EC50 with Plasmodium falciparum [1] was 0.307 µM; in the data set with Plasmodium falciparum [2], 0.018 µM. In data set [3], this compound yielded a half-maximal cytotoxic concentration (CC50) of 32.8 µM.

Regarding `COC(=O)C1=C(C)NC2=C(C(=O)CC(c3ccc(OC)cc3)C2)C1c1ccc(F)cc1` (stereo not drawn), the EC50 in the data set with Plasmodium falciparum [1] came out at 0.191 µM; in the data set with Plasmodium falciparum [2] it was 0.0547 µM. This compound also yielded a CC50 in data set [3] greater than 100 µM.

As to `CC(=O)Oc1ccccc1-c1nc2cc(C)ccn2c1NC(C)(C)CC(C)(C)C`, the EC50 in the data set with Plasmodium falciparum [1] is 0.389 µM; in the data set on Plasmodium falciparum [2] it was less than 0.00533 µM. Besides, the CC50 in data set [3] was greater than 10 µM.

Regarding `CCOC(=O)C1=C(C)NC2=C(C(=O)CC(c3ccc(OC)c(OC)c3)C2)C1c1cccc(C)c1` (stereo not drawn), the concentration for a half-maximal effect (EC50) came out at 0.236 µM in the data set with Plasmodium falciparum [1] and 0.0572 µM with Plasmodium falciparum [2]. Further, in data set [3], the CC50 is greater than 100 µM.

`COc1ccc(C2CC(=O)C3=C(C2)NC(C)=C(C(=O)OC(C)C)C3c2ccc(F)cc2)cc1OC` (stereo not drawn): the values for the EC50 with Plasmodium falciparum [1] and in the data set with Plasmodium falciparum [2] were 0.00945 µM and 0.0131 µM, respectively. Also, it took 22.8 µM to reach half-maximal cytotoxicity in data set [3] (CC50).

Take `CC1=C(C(=O)OC(C)C)C(c2ccc([N+](=O)[O-])cc2)C2=C(CC(c3ccc(Cl)cc3)CC2=O)N1` (stereo not drawn): the values for the EC50 with Plasmodium falciparum [1] and in the data set on Plasmodium falciparum [2] were 1.19 µM and 0.0563 µM, respectively. Moreover, the CC50 in data set [3] is greater than 100 µM.

`Nc1ccc(-c2nc3ccc(-c4nc5ccc(N)cc5[nH]4)cc3[nH]2)cc1`: the figures for the EC50 with Plasmodium falciparum [1] and with Plasmodium falciparum [2] were 0.12 µM and 0.0556 µM, respectively. In data set [3], this compound returned a CC50 greater than 100 µM.

Consider `Cn1nc(C(=O)N2CCCCCC2)c2c1CCC(NCC(C)(C)N1CCOCC1)C2` (stereo not drawn), for which the 50% effective concentration (EC50) in the data set on Plasmodium falciparum [1] was 0.0225 µM; in the data set on Plasmodium falciparum [2], 0.00552 µM. Moreover, the 50% cytotoxic concentration (CC50) in data set [3] was greater than 9.56 µM.

As for `COc1cccc(-c2ccc(O)c(CN3CCCCC3)c2)n1`, the values for the EC50 with Plasmodium falciparum [1] and in the data set on Plasmodium falciparum [2] were 0.469 µM and 0.0547 µM, respectively. The compound also returned a cytotoxic concentration (CC50) in data set [3] greater than 95.8 µM.

For `COc1ccc(NC(=O)C2c3ccccc3C(=O)N(CC(C)C)C2c2cccs2)cc1Cl` (stereo not drawn), the EC50 came to 0.0914 µM in the data set with Plasmodium falciparum [1] and 0.0556 µM with Plasmodium falciparum [2]. The compound further gave a CC50 in data set [3] greater than 100 µM.

In the case of `CCCCNC(=O)C(c1cccc(OC)c1)N1C(=O)c2cc(Oc3ccccc3)ccc2NC(=O)C1CO` (stereo not drawn), the EC50 with Plasmodium falciparum [1] is 0.181 µM; with Plasmodium falciparum [2], less than 0.008 µM. In data set [3], the CC50 was greater than 14 µM.

With `CC(=O)NC(c1ccc(N(C)C)cc1)c1cc(Cl)c2cccnc2c1O` (stereo not drawn), the concentration giving a half-maximal response (EC50) in the data set with Plasmodium falciparum [1] stood at 0.651 µM; with Plasmodium falciparum [2], 0.0393 µM. The CC50 in data set [3] is greater than 100 µM.

For the compound `COC(=O)C1=C(C)NC(=Cc2cc(C)n(-c3ccccc3F)c2C)C1=O`, the EC50 in the data set with Plasmodium falciparum [1] stood at 0.02 µM; in the data set on Plasmodium falciparum [2] it was 0.0383 µM. In data set [3], this compound gave a 50% cytotoxic concentration (CC50) greater than 100 µM.

For the compound `CCOC(=O)C1=C(C)NC2=C(C(=O)C(C(=O)OC)C(C)C2)C1c1cc(Br)c(OC)c(OC)c1` (stereo not drawn), the figures for the 50% effective concentration (EC50) in the data set with Plasmodium falciparum [1] and in the data set on Plasmodium falciparum [2] were 0.537 µM and 0.0404 µM, respectively. The compound also gave a CC50 in data set [3] greater than 100 µM.

With `CCC(C)OC(=O)C1=C(C)NC2=C(C(=O)CC(c3ccc(Cl)cc3)C2)C1c1ccc(Cl)cc1` (stereo not drawn), the EC50 in the data set with Plasmodium falciparum [1] was 0.216 µM; in the data set with Plasmodium falciparum [2], 0.0438 µM. In data set [3], this compound yielded a CC50 greater than 100 µM.

For the origin of these results see ChEMBL document CHEMBL1156829 (Proc Natl Acad Sci U S A, 2008).
